Results on 1 compound are retold here after US12582638B2, “Pharmaceutical composition for treating cancer, containing mTOR-signaling inhibitor as active ingredient” (KOREA ADVANCED INSTITUTE OF SCIENCE AND TECHNOLOGY, priority 2020, dated 2026).

The subject of one assay is HCT116 cells. Kind of assay: HCT116 mouse xenograft model, tumor size. Type of assay: in vivo. Conditions: BALB/c nude mice; 50 mg/kg or 25 or 50 mg/kg intraperitoneally, or 10 mg/kg intratumorally; vs DMSO control; FIG. 14. How it is done:
Lomitapide was examined for anticancer effect in tumor-implanted mice by monitoring tumor sizes in the mouse xenograft model after treatment with lomitapide.
Animal experiments were conducted according to the guideline approved by the institutional animal care and use committee in the Korean Advanced Institute of Science and Technology. HCT116 cells (4×10^6) were injected subcutaneously into male BALB/c nude mice at 8-12 weeks of age. After an average tumor volume reached 50 mm^3, the mice were randomly divided into two groups (5 mice/group). The mice were measured for weight and tumor size every two days. Tumor sizes were measured using calipers and determined according to formula 0.5×(width)^2×(Length). P-values were determined using Student's T test. Lomitapide was intraperitoneally injected at a dose of 50 mg/kg into the mice at days 1, 2, 3, 7, 8, 9, 13, 14, 15, and 16 after start of the experiment. For a control, DMSO was injected intraperitoneally into the mice (FIG. 14a).
An additional animal experiment was conducted. Lomitapide was intraperitoneally injected at a dose of 25 or 50 mg/kg into mice five times every two days after start of the experiment. Intraperitoneal injection of DMSO into mice was conducted for a control (FIG. 14b). […]

Another assay relates to EFM-192A. Kind of assay: Cell viability, CellTiterGlo, 72 hours. Type of assay: cell-based. Conditions: EFM-192A cells, Breast. In a few lines:
(§1)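 Viability was scored as a percentage from luminescence after lomitapide treatment at several concentrations at 37° C.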
A general note: In ATP-based viability assays light output follows the ATP content of the culture.

The subject of another assay is KARPAS 299. Kind of assay: Cell viability, CellTiterGlo, 72 hours. Type of assay: cell-based. Conditions: Homo sapiens, KARPAS 299 cells, Blood. The method, boiled down: as §1
In a further assay the test system is LP-1. Put plainly: Cell viability, CellTiterGlo, 72 hours. Type of assay: cell-based. The note with it: Homo sapiens, LP-1 cells, Blood. In a few lines:
as §1

The test system of the next assay is Hutu 80. Kind of assay: Cell viability, CellTiterGlo, 72 hours. Type of assay: cell-based. Conditions: Homo sapiens, HuTu80, Hutu 80 cells, Duodenum. The method, boiled down:
as §1

A further assay deals with A549. Put plainly: Cell viability, CellTiterGlo, 72 hours. Type of assay: cell-based. Conditions: Homo sapiens, A549 cells, Lung. In a few lines:
as §1

The subject of another assay is HCC38. Kind of assay: Cell viability, CellTiterGlo, 72 hours. The note with it: Homo sapiens, HCC38 cells, Breast. Type of assay: cell-based. The method, boiled down:
as §1

The subject of a further assay is JIMT-1. Put plainly: Cell viability, CellTiterGlo, 72 hours. Type of assay: cell-based. Conditions: Homo sapiens, JIMT-1 cells, Breast. In a few lines:
as §1

For another assay, the system named is SK.BR-3. Kind of assay: Cell viability, CellTiterGlo, 72 hours. Type of assay: cell-based. The note with it: Homo sapiens, SK.BR-3 cells, Breast. The method, boiled down:
as §1

Another assay concerns Ishikawa. Kind of assay: Cell viability, CellTiterGlo, 72 hours. The note with it: Homo sapiens, Ishikawa cells, Endometrium. Type of assay: cell-based. In a few lines:
as §1

For another assay, the system named is OVK18. Kind of assay: Cell viability, CellTiterGlo, 72 hours. The note with it: OVK18 cells, Ovary. Type of assay: cell-based. In a few lines: as §1
The next assay relates to OV56. Put plainly: Cell viability, CellTiterGlo, 72 hours. Type of assay: cell-based. The note with it: OV56 cells, Ovary. In a few lines: as §1
Another assay relates to SK-LU-1. Kind of assay: Cell viability, CellTiterGlo, 72 hours. Type of assay: cell-based. The note with it: Homo sapiens, SK-LU-1 cells, Lung. In a few lines: as §1
The next assay deals with KG-1. Put plainly: Cell viability, CellTiterGlo, 72 hours. Type of assay: cell-based. The note with it: Homo sapiens, KG-1 cells, Blood. In a few lines: as §1
A further assay has as its system SNU840. Put plainly: Cell viability, CellTiterGlo, 72 hours. Type of assay: cell-based. Conditions: SNU-840, SNU840 cells, Ovary. In a few lines:
as §1

Another assay deals with HEC-1-A. Kind of assay: Cell viability, CellTiterGlo, 72 hours. Type of assay: cell-based. Conditions: Homo sapiens, HEC-1-A cells, Endometrium. The method, boiled down: as §1
The next assay deals with MEC-1. Kind of assay: Cell viability, CellTiterGlo, 72 hours. Type of assay: cell-based. The note with it: Homo sapiens, MEC1, MEC-1 cells, Blood. In a few lines:
as §1

The subject of a further assay is MKN-45. Put plainly: Cell viability, CellTiterGlo, 72 hours. The note with it: Homo sapiens, MKN-45 cells, Stomach. Type of assay: cell-based. The method, boiled down: as §1
For another assay, the system named is RPMI 8226. Kind of assay: Cell viability, CellTiterGlo, 72 hours. Type of assay: cell-based. Conditions: Homo sapiens, RPMI 8226 cells, Blood. The method, boiled down: as §1
The next assay deals with SNU-1. Kind of assay: Cell viability, CellTiterGlo, 72 hours. The note with it: Homo sapiens, SNU1, SNU-1 cells, Stomach. Type of assay: cell-based. In a few lines: as §1
Another assay concerns U87MG. Kind of assay: Cell viability, CellTiterGlo, 72 hours. Type of assay: cell-based. The note with it: Homo sapiens, U-87 MG, U87MG cells, Brain. In a few lines:
as §1

Another assay concerns p-AMPK, LC3, p-ULK1. Put plainly: Autophagy assay, western blot, HCT116. Type of assay: cell-based, human. The note with it: 0, 5, and 10 μM, FIG. 8. As to the method:
HCT116 cells treated with various concentration (0, 5, and 10 μM) of lomitapide were analyzed for change in cell autophagy-related cell signaling pathway by western blotting. To this end, the supernatant obtained in Example 3 was loaded onto 10% SDS-PAGE gel. The proteins thus separated were blotted onto a PVDF membrane. Then, the blots were incubated with anti-p-AMPK, anti-LC3, anti-p-ULK1 antibodies (Cell Signaling Technology, Massachusetts, USA) at 4° C. for 12 hours. Afterward, the blots were washed with TBST (a mixture of tris-buffered saline (TBS) and Tween 20), incubated with horseradish peroxidase-conjugated secondary antibody (Cell signaling) at 37° C. for 1 hour, and washed, followed by detecting enhanced chemiluminescence (ECL; Amersham).
Background: Immunoblotting shows a protein as a band on a membrane.

Broadly, the IC50 is the concentration at which inhibition is half-maximal. Lower therefore signals higher potency. For the compound `O=C(NC1CCN(CCCCC2(C(=O)NCC(F)(F)F)c3ccccc3-c3ccccc32)CC1)c1ccccc1-c1ccc(C(F)(F)F)cc1` [lomitapide, N-(2,2,2-trifluoroethyl)-9-[4-[4-[[[4′-(trifluoromethyl)[1,1′-biphenyl]2-yl]carbonyl]amino]-1-piperidinyl]butyl]-9H-fluoren-9-carboxamide], the “tumor growth (tumor size)” value in the assay on HCT116 cells was “grow slowly, compared to the control”. Besides, the IC50 amounted to 4 µM in the assay with EFM-192A; 1.4 µM in the assay with KARPAS 299; 5.4 µM with LP-1; 3 µM in the assay with Hutu 80; 3.6 µM in the assay with A549; 6 µM with HCC38. The IC50 turned out to be 3.3 µM with JIMT-1; 3.9 µM in the assay on SK.BR-3; 3.6 µM in the assay on Ishikawa; 3.3 µM in the assay on OVK18; 4.8 µM with OV56; 4.6 µM with SK-LU-1. Further, the IC50 with KG-1 came out at 5.7 µM; with SNU840 it was 2.3 µM; in the assay with HEC-1-A, 4.9 µM; in the assay on MEC-1 it was 3.3 µM; in the assay with MKN-45, 3.9 µM; in the assay with RPMI 8226 it was 2.1 µM. The figures for the IC50 in the assay with SNU-1 and with U87MG were 2.8 µM and 3.1 µM, respectively. Also, the “conversion from LC3I into LC3II” value with p-AMPK, LC3, p-ULK1 is recorded as “significantly increased induction of conversion from LC3I into LC3II”. Besides, in the assay with p-AMPK, LC3, p-ULK1 (dose-dependent), the “phosphorylation level of AMPK” value is “remarkably increased”.
